Experimental data published in the SangsterLogP compilation.

Experiments:
[1] = method code SF-RC, from DOI: 10.1002/jps.2600800111, PMID: 2013848
[2] = method code SF, from DOI: 10.2307/3575246, PMID: 7367588
[3] = method code SF-AS, from DOI: 10.1016/0378-5173(80)90061-7
[4] = not given; remark: listed apart in the source
[5] = method code SF, from DOI: 10.1016/j.jiec.2010.03.003
[6] = method code SF-AS, from DOI: 10.1016/0223-5234(93)90135-2; conditions: pH 12.0
[7] = method code SF-AS, from PMID: 2551304; conditions: pH 7.4
[8] = not given; remark: listed apart in the source
[9] = method code SF-HPLC, from DOI: 10.1016/0378-5173(83)90028-5
[10] = not given; remark: listed apart in the source
[11] = method code SF-GLC, from DOI: 10.1021/es00131a005
[12] = not given; remark: listed apart in the source
[13] = not given; remark: listed apart in the source
[14] = method code SF-AS, from DOI: 10.1021/jm0495273.s001, PMID: 15974600; conditions: pH 7.4
[15] = method code SF-RC, from DOI: 10.1016/s0969-8051(01)00233-5, PMID: 11518650
[16] = method code SF-AS, from Ganga, L. X. J. S., & Zun-Yaob, L. H. W. (2009). Determination of lgKow and QSPR Study on Some Fluorobenzene Derivatives. Jiegou Huaxue, 28(10).
[17] = not given; remark: listed apart in the source
[18] = method code SF-GLC, from DOI: 10.1021/ac00241a023
[19] = method code SF, from Korenman, I. M.; Klyukvina, T. D. (1972). Extraction of methylfurfural from aqueous solutions. Zh. Prikl. Khim., 45(11)2697-2699.
[20] = method code SF, from DOI: 10.1021/bk-1995-0606.ch003
[21] = method code SF-AS, from DOI: 10.1002/etc.5620181211
[22] = method code G-HPLC, from DOI: 10.1016/s0021-9673(01)94303-1
[23] = method code SF-GLC, from Boikov, Yu.; Shibaev, V.; Gaidamaka, V.; V'yunov, K. (1989). Study of correlation between extraction characteristics of glycidyl ethers and theri structure. 62(1)177-179.
[24] = not given; remark: listed apart in the source
[25] = method code SF-HPLC, from DOI: 10.1021/je049947x
[26] = not given; remark: listed apart in the source
[27] = method code SF, from DOI: 10.1016/0005-2744(69)90103-x, PMID: 4387594
[28] = not given; remark: listed apart in the source
[29] = method code SF, from DOI: 10.1016/j.tca.2016.07.020; conditions: pH 7.4
[30] = method code SF, from Brown, J.; Yu, N.; Cory, M.; Bicknell, R.; Taylor, D. (1978). In vivo evaluation of the radiosensitizing and cytotoxic properties of newly synthesized electron-affinic drugs. 3, 206-211.
[31] = method code SF, from Ganellin, C. R., & Durant, G. J. (1981). Histamine H2-receptor agonists and antagonists. Burgers Medicinal Chemistry, 3, 487-552.; conditions: pH 11.8
[32] = method code SF-HPLC, from DOI: 10.1080/02772248909357333
[33] = method code SF-CR+AS, from Korenman, I. (1982). The influence of substituents on the partition of phenols between water and organic solvents. Russ. J. Phys. Chem., 56(3)458-460.
[34] = method code SF-GLC, from DOI: 10.1002/jps.2600620103, PMID: 4734195
[35] = not given; remark: listed apart in the source
[36] = method code SF-HPLC, from DOI: 10.1016/s0021-9673(01)88640-4
[37] = method code SF-HPLC, from DOI: 10.1016/j.ejps.2013.10.002, PMID: 24161609
[38] = method code SF-TN, from Korenman, I M.; Gurevich, N.; Kulagina, G. (1973). Extraction of certain n-alkylamines from aqueous solutions. Zh. Prikl. Khim., 46(3)726-728.
[39] = method code SF-TN, from DOI: 10.2116/analsci.13.897; conditions: pH 2.0
[40] = method code SF-AS, from PMID: 2160644
[41] = not given; remark: listed apart in the source
[42] = method code SF-GLC, from DOI: 10.1002/etc.5620080910
[43] = not given; remark: listed apart in the source
[44] = method code SF-AS, from DOI: 10.1016/0891-5849(94)00112-w, PMID: 7744299; conditions: pH 7.5
[45] = from KURIHARA, Norio.; Fujita, Toshio. (1983). Composition of Partition Coefficients of Polychlorinated Hydrocarbons (Commemoration Issue Dedicated to Professor Yuzo Inouye on the Occasion of his …
[46] = method code SF-AS, from Kosanovic, D.; Dumanovic, D.; Jovanovic, J. (1988). Solubility in octanol And the octanol-water partition coefficients of some 4(5)- and 5-nitroimidazoles. 53(10)559-563.
[47] = method code SF-TN, from DOI: 10.1085/jgp.71.1.93, PMID: 621494
[48] = not given; remark: listed apart in the source
[49] = method code SF-AS, from DOI: 10.1016/0378-5173(93)90388-v
[50] = method code SF-AS, from DOI: 10.1016/0003-9861(82)90097-2, PMID: 6284047; conditions: pH 7.4
[51] = method code SF-AS, from DOI: 10.1016/0039-9140(93)80165-n, PMID: 18965747; conditions: pH 2.0
[52] = not given; remark: listed apart in the source
[53] = not given; remark: listed apart in the source
[54] = not given; remark: listed apart in the source
[55] = method code SF, from DOI: 10.1016/s0960-894x(00)80094-3; conditions: pH 7.4

For `Nc1ccc(S(=O)(=O)O)cc1`, the logP [1] was -2.16.
For `Clc1cccc(C(Cl)(Cl)Cl)n1`, the logP was 3.41.
Work on `Cn1c(C(O)CO)cnc1[N+](=O)[O-]` (stereo unspecified) yielded a logP [2] of -0.89.
Work on `CCOC(=O)CCCO` yielded a logP [3] of 0.43.
With `Oc1ccc(O)c(Cl)c1` the logP [4] was 1.4.
Compound `COC(C)(C)C` has a logP [5] of 1.41.
`NCCc1nccs1` gave a logD [6] of 0.16.
For `Nc1ccncc1F`, the logD [7] was 0.63.
For `COP(=O)(OC)OC(Br)C(Cl)(Cl)Br` (stereo unspecified), the logP [8] was 2.19.
With `O=[N+]([O-])O[C@@H]1CO[C@H]2[C@@H]1OC[C@@H]2O` the logP [9] was -0.15.
Work on `CON=C(C#N)C(=O)NCC(=O)O` yielded a logP [10] of -0.58.
`Clc1ccc(Cl)c(Cl)c1Cl` gave a logP [11] of 4.6.
For `Nc1cc(Cl)c(S(N)(=O)=O)cc1S(N)(=O)=O`, the logP [12] was -0.56.
In the case of `Nc1cccc(O)c1`, the logP [13] is reported as 0.28.
Work on `Nc1nc(S)c2[nH]cnc2n1` yielded a logD [14] of -0.16.
Compound `CN(C)CCCF` has a logP [15] of 1.27.
In the case of `Fc1ccc(F)cc1`, the logP [16] is reported as 2.26.
`Oc1c(Br)c(Br)c(Br)c(Br)c1Br` gave a logP [17] of 5.3.
`Clc1cccc(Cl)c1Cl` showed a logP [18] of 4.05.
Work on `Cc1ccc(C=O)o1` yielded a logP [19] of 0.67.
For `CCc1ccc[nH]1`, the logP [20] was 1.59.
In the case of `Cc1cccnc1N`, the logP [21] is reported as 0.01.
With `CCCCBr` the logP [22] was 2.75.
With `CCOCC1CO1` (stereo unspecified) the logP [23] was 0.27.
Work on `CNC(=O)N(C)c1nnc(C(F)(F)F)s1` yielded a logP [24] of 1.46.
`CC(C)Nc1nc(N)nc(Cl)n1` gave a logP [25] of 1.49.
`CCOCCO` showed a logP [26] of -0.28.
For `Nc1ccccc1F`, the logP [27] was 1.26.
`Nc1cc(N=O)ccc1O` gave a logP [28] of 0.03.
Compound `NC(=S)c1ccncc1` has a logD [29] of 0.61.
`CC(O)Cn1ccnc1[N+](=O)[O-]` (stereo unspecified) showed a logP [30] of -0.16.
With `NCCc1c[nH]cn1` the logD [31] was -0.7.
Work on `COc1nn(CSP(=S)(OC)OC)c(=O)s1` yielded a logP [32] of 2.22.
`Nc1cc([N+](=O)[O-])cc(Cl)c1O` gave a logP [33] of 1.53.
Compound `CC(C)C(C)O` (stereo unspecified) has a logP [34] of 1.28.
Compound `COP(=O)(OC)OC=C(Cl)Cl` has a logP [35] of 1.4.
`N#CN=[N+]([O-])c1cnccn1` gave a logP [36] of 0.1.
`O=C(O)[C@H](O)[C@@H](O)C(=O)O` gave a logP [37] of -1.2.
Work on `CCCCN` yielded a logP [38] of 0.74.
Work on `O=C(O)C1CCCC1` yielded a logD [39] of 1.52.
`O=C(O)c1cc(=O)[nH]c(=O)[nH]1` gave a logP [40] of -0.83.
Compound `Cc1nccn1C` has a logP [41] of -0.04.
`O=[N+]([O-])c1ccc(Cl)cc1Cl` showed a logP [42] of 3.05.
For `COCC(C)OC(C)=O` (stereo unspecified), the logP [43] was 0.56.
`O=Nc1ccccc1` showed a logD [44] of 1.86.
With `ClC1C=CCC(Cl)C1Cl` (stereo unspecified) the logP [45] was 2.84.
`CC(C)c1nc([N+](=O)[O-])c[nH]1` gave a logP [46] of 0.9.
In the case of `CCCCC(O)C(=O)O` (stereo unspecified), the logP [47] is reported as 0.81.
`CC(CCl)OC(C)CCl` (stereo unspecified) showed a logP [48] of 2.48.
`CC1CCC(=O)N1` (stereo unspecified) gave a logP [49] of -0.1.
Work on `CC1(C)CCC=[N+]1[O-]` yielded a logD [50] of -1.03.
`CC(C)(C)C(=O)O` gave a logD [51] of 1.42.
`O=[N+]([O-])c1cc(Cl)ccc1Cl` showed a logP [52] of 3.09.
`Oc1ccc(O)cc1` showed a logP [53] of 0.61.
`COC(=O)c1ccco1` gave a logP [54] of 1.08.
With `NC1CCN(O)C1=O` (stereo unspecified) the logD [55] was -3.52.
